In ChEMBL document CHEMBL1201862, “PubChem BioAssay data set” (2004):
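The compound was tested at five concentrations on cells cultured in 96-well plates, with a 48-hour exposure period. Here, GI50 denotes the concentration required for 50% inhibition of growth.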 Active and inactive are the calls of the source. Rule as the data show it: active = GI50 up to about 1.1 µM and inactive = higher.

Legend:
Test in all cases: NCI tumour cell line growth inhibition, 48 h
LOX IMVI = test system: LOX IMVI
T47D = test system: T47D
MCF7 = test system: MCF7
MDA-N = test system: MDA-N
DU-145 = test system: DU-145
OVCAR-3 = test system: OVCAR-3
UACC-257 = test system: UACC-257
SF-295 = test system: SF-295
NCI-H226 = test system: NCI-H226
A549 = test system: A549
ACHN = test system: ACHN
SK-OV-3 = test system: SK-OV-3
SF-268 = test system: SF-268
M14 = test system: M14
Malme-3M = test system: Malme-3M
NCI/ADR-RES = test system: NCI/ADR-RES
IGROV-1 = test system: IGROV-1
CCRF-CEM = test system: CCRF-CEM
786-0 = test system: 786-0
HL-60 = test system: HL-60

| SMILES | GI50 (LOX IMVI) | GI50 (T47D) | GI50 (MCF7) | GI50 (MDA-N) | GI50 (DU-145) | GI50 (OVCAR-3) | GI50 (UACC-257) | GI50 (SF-295) | GI50 (NCI-H226) | GI50 (A549) | GI50 (ACHN) | GI50 (SK-OV-3) | GI50 (SF-268) | GI50 (M14) | GI50 (Malme-3M) | GI50 (NCI/ADR-RES) | GI50 (IGROV-1) | GI50 (CCRF-CEM) | GI50 (786-0) | GI50 (HL-60) |
| --- | --- | --- | --- | --- | --- | --- | --- | --- | --- | --- | --- | --- | --- | --- | --- | --- | --- | --- | --- | --- |
| CCOC(=O)Cc1nn2c(=O)cc(C)nc2s1 | > 100 µM (inactive) | > 100 µM (inactive) | > 100 µM (inactive) | > 100 µM (inactive) | > 100 µM (inactive) | > 100 µM (inactive) | > 100 µM (inactive) | > 100 µM (inactive) | > 100 µM (inactive) | > 100 µM (inactive) | > 100 µM (inactive) | > 100 µM (inactive) | > 100 µM (inactive) | > 100 µM (inactive) | > 100 µM (inactive) | > 100 µM (inactive) | > 100 µM (inactive) | > 100 µM (inactive) | > 100 µM (inactive) | > 100 µM (inactive) |
| Cc1nc(C)c(N2CCN(C(=O)NC(CCC(=O)O)C(=O)O)CC2)c(O)n1 (configuration not stated) | > 100 µM (inactive) | > 100 µM (inactive) | > 100 µM (inactive) | > 100 µM (inactive) | > 100 µM (inactive) | > 100 µM (inactive) | > 100 µM (inactive) | > 100 µM (inactive) | > 100 µM (inactive) | > 100 µM (inactive) | > 100 µM (inactive) | > 100 µM (inactive) | > 100 µM (inactive) | > 100 µM (inactive) | > 100 µM (inactive) | > 100 µM (inactive) | > 100 µM (inactive) | > 100 µM (inactive) | > 100 µM (inactive) | > 100 µM (inactive) |
| CCOC(=O)c1cc2c3c(cc(OC)c2[nH]1)N(C(=O)OCC)CC3 | > 100 µM (inactive) | > 100 µM (inactive) | > 100 µM (inactive) | > 100 µM (inactive) | > 100 µM (inactive) | > 100 µM (inactive) | > 100 µM (inactive) | > 100 µM (inactive) | > 100 µM (inactive) | > 100 µM (inactive) |  | > 100 µM (inactive) | > 100 µM (inactive) | > 100 µM (inactive) | > 100 µM (inactive) | > 100 µM (inactive) | > 100 µM (inactive) | > 100 µM (inactive) | > 100 µM (inactive) | > 100 µM (inactive) |
| CC1=NN(c2nc(N)nc(C(C#N)C(=O)c3cc4c(cc3Cl)Sc3nccn3S4(=O)=O)n2)C(C)(C)C1 (configuration not stated) | 17.7 µM (inactive) | 14.6 µM (inactive) | 14.3 µM (inactive) | 21.9 µM (inactive) | 16.8 µM (inactive) | 13.6 µM (inactive) | 19.2 µM (inactive) | 20.5 µM (inactive) | 16.5 µM (inactive) | 61.4 µM (inactive) | 13.4 µM (inactive) | 18.5 µM (inactive) | 13.6 µM (inactive) | 34.5 µM (inactive) | 14.3 µM (inactive) | > 100 µM (inactive) | 20.8 µM (inactive) | 6.84 µM (inactive) | 13.5 µM (inactive) | 10.3 µM (inactive) |
| COc1cc(S(=O)(=O)Nc2ccc(-c3csc(N4C(=O)CSC4c4ccccc4)n3)cc2)ccc1Cl (configuration not stated) | 30.5 µM (inactive) | 16.3 µM (inactive) | 22.6 µM (inactive) | 39.9 µM (inactive) | > 100 µM (inactive) | > 100 µM (inactive) | 40.9 µM (inactive) | 96.6 µM (inactive) | 94.4 µM (inactive) | 0.785 µM (active) | 15.2 µM (inactive) | > 100 µM (inactive) | 33.7 µM (inactive) | 43.8 µM (inactive) | > 100 µM (inactive) | > 100 µM (inactive) | 51.4 µM (inactive) | 34.2 µM (inactive) | 76.2 µM (inactive) | 20.8 µM (inactive) |
| O=c1c2cc(S(=O)(=O)O)ccc2nc(COc2ccc(Oc3ccc(Cl)cc3Cl)cc2)n1-c1ccc(Cl)cc1Oc1c(Cl)cccc1Cl | 17.5 µM (inactive) | 46.1 µM (inactive) | 21.2 µM (inactive) | 30.1 µM (inactive) | 38 µM (inactive) | 23.7 µM (inactive) | 30.5 µM (inactive) | 21.8 µM (inactive) | 20.6 µM (inactive) | 23.7 µM (inactive) | 25.1 µM (inactive) | 25.2 µM (inactive) | 15.3 µM (inactive) | 21.9 µM (inactive) | 36.5 µM (inactive) | 23.9 µM (inactive) | 33 µM (inactive) | 30.9 µM (inactive) | 24.7 µM (inactive) | 47.1 µM (inactive) |
| N#CC1(O)CCCCCCCCCCC1 | > 100 µM (inactive) | > 100 µM (inactive) | > 100 µM (inactive) | > 100 µM (inactive) | > 100 µM (inactive) | > 100 µM (inactive) | > 100 µM (inactive) | > 100 µM (inactive) | > 100 µM (inactive) | > 100 µM (inactive) | > 100 µM (inactive) | > 100 µM (inactive) | > 100 µM (inactive) | > 100 µM (inactive) | > 100 µM (inactive) | > 100 µM (inactive) | > 100 µM (inactive) | > 100 µM (inactive) | > 100 µM (inactive) | > 100 µM (inactive) |
| [N-]=[N+]=Nc1ccc2c(c1)Sc1ccccc1N2CCCCN1CCN(Cc2ccc(C(=O)c3ccccc3)cc2)CC1 | 1.76 µM (inactive) | 3.39 µM (inactive) | 2.64 µM (inactive) | 9.51 µM (inactive) | > 100 µM (inactive) | 3.72 µM (inactive) | 2.04 µM (inactive) | 23.4 µM (inactive) | 20.4 µM (inactive) | > 92.5 µM (inactive) | 6.46 µM (inactive) | > 100 µM (inactive) | 5.6 µM (inactive) | 2 µM (inactive) | 1.95 µM (inactive) | 3.68 µM (inactive) | > 22.3 µM (inactive) | 5.97 µM (inactive) | 5.24 µM (inactive) | 2.47 µM (inactive) |
| O=C(c1cc(Cl)cc(Cl)c1)N(C(=O)N1CCN(c2ccccc2)CC1)c1ccccc1 | 36.5 µM (inactive) | 18.1 µM (inactive) | 29.9 µM (inactive) | 12.7 µM (inactive) | 80.9 µM (inactive) | 66.1 µM (inactive) | 28.9 µM (inactive) | 37.2 µM (inactive) | 22.8 µM (inactive) | 23.2 µM (inactive) | 72.9 µM (inactive) | 96.6 µM (inactive) | 43.1 µM (inactive) | 27.6 µM (inactive) | 47 µM (inactive) | 25.6 µM (inactive) |  | 22.5 µM (inactive) | 43.1 µM (inactive) | 17.2 µM (inactive) |
| C/C(=N/NC(=S)N1CCN(C(=S)N/N=C(/C)c2ccccn2)CC1)c1ccccn1 | 5.94 µM (inactive) | 3.52 µM (inactive) | 5.24 µM (inactive) | > 77.8 µM (inactive) | 5.86 µM (inactive) | 3.01 µM (inactive) | 16.3 µM (inactive) | 6.25 µM (inactive) | 6.89 µM (inactive) | 9.12 µM (inactive) | 2.52 µM (inactive) | 8.3 µM (inactive) | 3.03 µM (inactive) | 4.47 µM (inactive) | 4.6 µM (inactive) | 4.16 µM (inactive) | 17.7 µM (inactive) | 0.682 µM (active) | 6.87 µM (inactive) | 0.352 µM (active) |
| CC(=O)OCC1OC(n2c(C#N)cc(=O)[nH]c2=O)CC1OC(C)=O (configuration not stated) | > 100 µM (inactive) | > 100 µM (inactive) | > 100 µM (inactive) | > 100 µM (inactive) | > 100 µM (inactive) | > 100 µM (inactive) | > 100 µM (inactive) | > 100 µM (inactive) | > 100 µM (inactive) | > 100 µM (inactive) | > 100 µM (inactive) | > 100 µM (inactive) | > 100 µM (inactive) | > 100 µM (inactive) | > 100 µM (inactive) | > 100 µM (inactive) | > 100 µM (inactive) | > 100 µM (inactive) | > 100 µM (inactive) | > 100 µM (inactive) |
| O=C(O)c1ccccc1CC(Cc1ccc2c(c1)CCC2)C(=O)O (configuration not stated) | > 100 µM (inactive) | > 100 µM (inactive) | > 100 µM (inactive) | > 100 µM (inactive) | > 100 µM (inactive) | > 100 µM (inactive) | > 100 µM (inactive) | > 100 µM (inactive) | > 100 µM (inactive) | > 100 µM (inactive) | > 100 µM (inactive) | > 100 µM (inactive) | > 100 µM (inactive) | > 100 µM (inactive) | > 100 µM (inactive) | > 100 µM (inactive) | > 100 µM (inactive) | > 100 µM (inactive) | > 100 µM (inactive) | > 100 µM (inactive) |
| O=C(Nc1nn(C(=O)c2cccnc2)c(=O)s1)c1ccc(Cl)cc1 | > 100 µM (inactive) | 27 µM (inactive) | 77.3 µM (inactive) | > 100 µM (inactive) | 85.9 µM (inactive) | 43.1 µM (inactive) | > 100 µM (inactive) | 46.3 µM (inactive) | 22.5 µM (inactive) | 99.8 µM (inactive) | > 100 µM (inactive) | 56.2 µM (inactive) | 20.7 µM (inactive) | > 100 µM (inactive) | 31.6 µM (inactive) | > 100 µM (inactive) |  | 34 µM (inactive) | > 100 µM (inactive) | 60.3 µM (inactive) |
| O=C(O)C1C(C(=O)Nc2ccc3c(c2)Cc2ccccc2-3)C2(Cl)C(Cl)=C(Cl)C1(Cl)C2(Cl)Cl (configuration not stated) | 18.4 µM (inactive) | 32.1 µM (inactive) | 22.5 µM (inactive) | 35.6 µM (inactive) | 31.1 µM (inactive) | 17.6 µM (inactive) | 20.6 µM (inactive) | 39.1 µM (inactive) | 29 µM (inactive) | 33.3 µM (inactive) | 30.3 µM (inactive) | 45.5 µM (inactive) | 26.2 µM (inactive) | 20.4 µM (inactive) | 20.6 µM (inactive) | 36.6 µM (inactive) | 20 µM (inactive) | 18.7 µM (inactive) | 30.3 µM (inactive) | 26.6 µM (inactive) |
